Experimental data as given in patent US8367873B2, “Phenyl-substituted bicyclooctane-1,3-dione derivatives” (Bayer Cropscience AG, priority 2008, dated 2013).

Columns and labels:
Format in all cases: in vivo
Alopecurus myosuroides [1] = test: Herbicidal pre-emergence action; conditions: pre-emergence method, 80 g/ha, greenhouse, visual assessment vs untreated controls
How it was run: (§1)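 Test compounds, as wettable powder suspensions with 0.2% wetting agent at a water rate of 600 l/ha, were applied in different amounts to the covering soil over freshly sown seeds in sandy loam. Emergence damage was rated visually in percent against untreated plants after three weeks under greenhouse conditions.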

Echinocloa crus-galli [2] = test: Herbicidal pre-emergence action; conditions: pre-emergence method, 80 g/ha, greenhouse, visual assessment vs untreated controls
How it was run: as §1

Lolium multiflorum [3] = test: Herbicidal pre-emergence action; conditions: pre-emergence method, 80 g/ha, greenhouse, visual assessment vs untreated controls
How it was run: as §1

Setaria viridis [4] = test: Herbicidal pre-emergence action; conditions: pre-emergence method, 80 g/ha, greenhouse, visual assessment vs untreated controls
How it was run: as §1

Alopecurus myosuroides [5] = test: Herbicidal post-emergence action; conditions: post-emergence method; for herbicidal effect against ALOMY (Alopecurus myosuroides): 80 g/ha; for pest or weed control at 80 g/ha: Alopecurus myosuroides, 504 h, read-out: herbicidal effect against ALOMY (Alopecurus myosuroides)
How it was run: (§2)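 Visual % herbicidal effect vs untreated controls (100% = plants dead, 0% = as control), ~3 wk after spraying. Plants sown in sandy loam, greenhouse-grown, treated at one-leaf stage (2–3 wk post-sowing). WP formulations, 600 l/ha water + 0.2% wetting agent, various doses.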

Echinocloa crus-galli [6] = test: Herbicidal post-emergence action; conditions: post-emergence method; for herbicidal effect against ECHCG (Echinochloa crus-galli): 80 g/ha; for pest or weed control at 80 g/ha: Echinochloa crus-galli, 504 h, read-out: herbicidal effect against ECHCG (Echinochloa crus-galli)
How it was run: as §2

Lolium multiflorum [7] = test: Herbicidal post-emergence action; conditions: post-emergence method; for herbicidal effect against LOLMU (Lolium multiflorum): 80 g/ha; for pest or weed control at 80 g/ha: Lolium multiflorum, 504 h, read-out: herbicidal effect against LOLMU (Lolium multiflorum)
How it was run: as §2

Setaria viridis [8] = test: Herbicidal post-emergence action; conditions: post-emergence method; for herbicidal effect against SETVI (Setaria viridis): 80 g/ha; for pest or weed control at 80 g/ha: Setaria viridis, 504 h, read-out: herbicidal effect against SETVI (Setaria viridis)
How it was run: as §2

[9] = test system: monocotylidonous and dicotylidonous weed and crop plants; test: Herbicidal pre-emergence action (other test plants); conditions: pre-emergence method, 80 g/ha, greenhouse, visual assessment vs untreated controls
From the text: Seeds of monocotylidonous and dicotylidonous weed and crop plants are placed in sandy loam in wood fibre pots and covered with soil. The test compounds, formulated in the form of wettable powders (WP), are then, as an aqueous suspension with a water application rate of 600 l/ha (converted), with 0.2% of wetting agent added, applied to the surface of the covering soil in different amounts.
After the treatment, the pots are placed in a greenhouse and kept under good growth conditions for the test plants. The visual assessment of the emergence damage on the test plants is carried out after a trial period of three weeks by comparison with the untreated controls (herbicidal effect in percent: 100% effect=the plants have died, 0% effect=like control plants).

[10] = test system: monocotylidonous and dicotylidonous weed and crop plants; test: Herbicidal post-emergence action (other test plants); conditions: post-emergence method; for herbicidal effect against AVEFA (Avena fatua): 80 g/ha; for pest or weed control at 80 g/ha: 504 h, Avena fatua, read-out: herbicidal effect against AVEFA (Avena fatua)
How it was run: as §2

SMILES | herbicidal effect ALOMY (Alopecurus myosuroides [1]) [%] | herbicidal effect ECHCG (Echinocloa crus-galli [2]) [%] | herbicidal effect LOLMU (Lolium multiflorum [3]) [%] | herbicidal effect SETVI (Setaria viridis [4]) [%] | herbicidal effect against ALOMY (Alopecurus myosuroides) (Alopecurus myosuroides [5]) [%] | herbicidal effect against ECHCG (Echinochloa crus-galli) (Echinocloa crus-galli [6]) [%] | herbicidal effect against LOLMU (Lolium multiflorum) (Lolium multiflorum [7]) [%] | herbicidal effect against SETVI (Setaria viridis) (Setaria viridis [8]) [%] | herbicidal effect AVEFA [9] [%] | herbicidal effect against AVEFA (Avena fatua) [10] [%] | pest or weed control at 80 g/ha (Alopecurus myosuroides [5]) [%] | pest or weed control at 80 g/ha (Echinocloa crus-galli [6]) [%] | pest or weed control at 80 g/ha (Lolium multiflorum [7]) [%] | pest or weed control at 80 g/ha (Setaria viridis [8]) [%] | pest or weed control at 80 g/ha [10] [%]
CCc1cc(C)cc(CC)c1C1=C(O)C2CC(=NOCC(C)C)CC2C1=O (centres unmarked) [I-a-69] | 50 | 20 | 70 | 80 | 90 | 100 | 100 | 80 | 70 | 30 | – | – | – | – | –
C=C1C[C@@H]2C(O)=C(c3c(CC)cc(C)cc3CC)C(=O)[C@@H]2C1 (stereo in doubt) [I-a-5, 2-(2,6-diethyl-4-methylphenyl)-3-hydroxy-5-methylidene-4,5,6,6a-tetrahydropentalen-1(3 aH)-one] | 60 | 80 | 90 | 70 | – | – | – | – | 60 | – | 60 | 100 | 90 | 100 | 50
CCc1cc(C)cc(C)c1C1=C(OC(=O)OC(C)C)C2CC3(CC2C1=O)OCC=CCO3 (racemic) [I-c-74] | 70 | 100 | 100 | 100 | 60 | 100 | 100 | 100 | 60 | 70 | – | – | – | – | –
CCc1cc(C)cc(C)c1C1=C(O)C2CC3(CC2C1=O)OCCO3 (centres unmarked) [I-a-57] | 80 | 100 | 100 | 90 | 100 | 100 | 100 | 100 | 60 | 100 | – | – | – | – | –
CCc1cc(C)cc(CC)c1C1=C(OC(=O)OC)C2CC3(CC2C1=O)OCC(C)(C)CO3 (centres unmarked) [I-c-23] | 100 | 100 | 100 | 100 | 100 | 100 | 100 | 100 | 70 | 100 | – | – | – | – | –
C=C1CC2C(=O)C(c3c(CC)cc(C)cc3CC)=C(OC(=O)OCC)C2C1 (centres unmarked) [I-c-5, 2-(2,6-diethyl-4-methylphenyl)-5-methylidene-3-oxo-3,3a,4,5,6,6a-hexahydropentalen-1-yl ethyl carbonate] | 80 | 90 | 80 | 80 | – | – | – | – | 80 | – | 20 | 100 | 90 | 90 | 30
CCOC(=O)OC1=C(c2c(C)cc(C)cc2CC)C(=O)C2CC3(COC(C)(C)O3)CC12 (mixture of isomers) [I-c-80] | 100 | 100 | 100 | 60 | 90 | 100 | 100 | 90 | 60 | 70 | – | – | – | – | –
CCOC(=O)OC1=C(c2c(C)cc(C)cc2C)C(=O)C2CC3(COC(C)(C)O3)CC12 (mixture of isomers) [I-c-54] | 90 | 0 | 90 | 0 | 90 | 90 | 80 | 40 | 40 | 0 | – | – | – | – | –
CCOC(=O)OC1=C(c2c(C)cc(C)cc2OC)C(=O)C2CC3(CC12)OCCCCO3 (racemic) [I-c-66] | 100 | 100 | 100 | 60 | 100 | 100 | 100 | 100 | 70 | 100 | – | – | – | – | –
CCc1cc(C)cc(CC)c1C1=C(O)[C@H]2CC3(C[C@H]2C1=O)OCC(OC)CO3 (relative stereo) [I-a-26] | 100 | 100 | 100 | 100 | 100 | 100 | 100 | 100 | 70 | 100 | – | – | – | – | –
CCc1cc(C)cc(C)c1C1=C(OC(=O)C(C)(C)C)C2CC3(COC(C)(C)O3)CC2C1=O (centres unmarked) [I-b-70] | 100 | 100 | 100 | 90 | 70 | 100 | 100 | 40 | 80 | 0 | – | – | – | – | –
CCc1cc(C)cc(CC)c1C1=C(O)C2CC(=NOC(C)(C)C)CC2C1=O (centres unmarked) [I-a-68] | 40 | 50 | 80 | 0 | 90 | 100 | 100 | 40 | 40 | 0 | – | – | – | – | –
C=C1CC2C(=O)C(c3c(C)cc(C)cc3C)=C(OC(=O)OC)C2C1 (racemic) [I-c-46] | 80 | 80 | 70 | 80 | 40 | 80 | 90 | 90 | 50 | 0 | – | – | – | – | –
CCc1cc(C)cc(CC)c1C1=C(OC(C)=O)C2CC3(CC2C1=O)OCCO3 (centres unmarked) [I-b-18] | 100 | 80 | 100 | 70 | 100 | 100 | 100 | 100 | 70 | 100 | – | – | – | – | –
